Results as given in patent US20090104128A1, “Denture adhesive compositions with anti-ucler agents” (Orahealth Corporation, priority 2007, published 2009).

System: mouth ulcers
Assay: tests of cobalamin forms for treatment of mouth ulcers
Format: in vivo
Conditions: compared with other cobalamin forms (cyanocobalamin, hydroxocobalamin); tests not described

C/C1=C2/[N-][C@H]([C@H](CC(N)=O)[C@@]2(C)CCC(=O)NC[C@@H](C)OP(=O)([O-])O[C@H]2[C@@H](O)[C@@H](n3cnc4cc(C)c(C)cc43)O[C@@H]2CO)[C@]2(C)N=C(/C(C)=C3N=C(/C=C4N=C1[C@@H](CCC(N)=O)C\4(C)C)[C@@H](CCC(N)=O)[C@]\3(C)CC(N)=O)[C@@H](CCC(N)=O)[C@]2(C)CC(N)=O.[CH3-].[Co+3] [Methylcobalamin, methylcobalamin]
treatment of mouth ulcers: superior
